System: mice
Test: conditioned avoidance response assay
Assay type: in vivo
Details: tested 20 min after
Procedure: Eleven mice per sample group are tested using a conditioned avoidance response assay, which can be used to predict the likelihood of possible detrimental side effects associated with the administration of a neuroleptic agent. The regimen included a pre-treatment with either saline or reboxetine (at a dosage of 6 mg/kg, i.p.) followed thirty minutes afterwards by treatment with either saline or raclopride (0.05 mg/kg or 0.10 mg/kg, s.c.). The mice are tested in the assay twenty minutes after administration of the saline or raclopride. The mean average avoidance as measured by the assay for the six different sample groups are as follows: […]

CCN1CCC[C@H]1CNC(=O)c1c(O)c(Cl)cc(Cl)c1OC [raclopride]
mean average avoidance (saline pre-treatment, 30 min later raclopride 0.05 mg/kg s.c.): 90 | mean average avoidance (saline pre-treatment, 30 min later raclopride 0.10 mg/kg s.c.): 70

CCOc1ccccc1OC(c1ccccc1)C1CNCCO1 (stereo not drawn) [reboxetine]
mean average avoidance (reboxetine 6 mg/kg i.p. pre-treatment, 30 min later saline): 100
